Measurements: ChEMBL document CHEMBL1144596, “Synthesis of O-prenylated and O-geranylated derivatives of 5-benzylidene2,4-thiazolidinediones and evaluation of their free radical scavenging activity as well as effect on some phase II antioxidant/detoxifying enzymes” (Bioorg Med Chem Lett, 2007)
One block for each compound: values may come before it.

What was measured:
[1] = Inhibition of DPPH radical scavenging activity; type: functional
[2] = species on record: Mus musculus; assay: Stimulation of GSH level per protein in Swiss Albino mouse liver; type: functional
[3] = species on record: Mus musculus; assay: Stimulation of CAT level per protein in Swiss Albino mouse liver; type: functional
[4] = species on record: Mus musculus; assay: Effect on lipid-peroxidation level per protein in Swiss Albino mouse liver; type: functional, organism-based
[5] = system: Mus musculus; assay: Hepatoprotecting activity in Swiss Albino mouse liver assessed as […] level at 3 mg/kg, po for 20 days; type: functional
[6] = system: Mus musculus; assay: Hepatoprotecting activity in Swiss Albino mouse liver assessed as urea level at 3 mg/kg, po for 20 days
[7] = system: Mus musculus; assay: Hepatoprotecting activity in Swiss Albino mouse liver assessed as ALT level at 3 mg/kg, po for 20 days; type: functional
[8] = species on record: Mus musculus; assay: Stimulation of SOD level per protein in Swiss Albino mouse liver; type: functional
[9] = species on record: Mus musculus; assay: Stimulation of GST level in Swiss Albino mouse liver; type: functional

Structure (SMILES): Cc1c(C)c2c(c(C)c1O)CC[C@@](C)(CCC[C@H](C)CCC[C@H](C)CCCC(C)C)O2 [ALPHA-TOCOPHEROL]
IC50 [1]: 2.3 µM

Structure (SMILES): COc1cc(/C=C2/SC(=O)NC2=O)ccc1OC/C=C(/C)CCC=C(C)C
IC50 [1]: 17.6 µM

Structure (SMILES): COc1cc(/C=C2/SC(=O)NC2=O)cc(OC)c1OCC=C(C)C
Activity [2]: 238.22 nmol/mg
Activity [3]: 23.97 U/mg
Activity [4]: 0.158 nmol/mg
Activity [5]: 37.99 IU/L
Urea level [6]: 16.53 mg/dL
IC50 [1]: 4.08 µM
Activity [7]: 7.3 IU/L
Activity [8]: 67.45 U/mg
Activity [9]: 140.54 nmol/mg/min

Structure (SMILES): CC(C)=CCC/C(C)=C/COc1ccccc1/C=C1/SC(=O)NC1=O
IC50 [1]: 12 µM

Structure (SMILES): COc1cc(/C=C2/SC(=O)NC2=O)cc(OC)c1OC/C=C(/C)CCC=C(C)C
IC50 [1]: 32.1 µM

More lines, main results first:

IC50 [1]: 23.5 µM
Structure (SMILES): O=C1NC(=O)/C(=C\c2ccccc2O)S1

IC50 [1]: 17.9 µM
Structure (SMILES): COc1cc(/C=C2/SC(=O)NC2=O)ccc1OCC=C(C)C

IC50 [1]: 9.8 µM
Structure (SMILES): CC(C)=CCC/C(C)=C\COc1ccc(/C=C2/SC(=O)NC2=O)cc1
Activity [2]: 245.32 nmol/mg
Activity [3]: 22.32 U/mg
Activity [4]: 0.148 nmol/mg
Activity [5]: 32.88 IU/L
Urea level [6]: 14.69 mg/dL
Activity [7]: 6.32 IU/L
Activity [8]: 70.15 U/mg
Activity [9]: 160.33 nmol/mg/min

IC50 [1]: 43.3 µM
Structure (SMILES): CC(C)=CCOc1ccccc1/C=C1/SC(=O)NC1=O

IC50 [1]: > 50 µM
Structure (SMILES): CC(C)=CCOc1ccc(/C=C2/SC(=O)NC2=O)cc1

IC50 [1]: 2.85 µM
Structure (SMILES): COc1cc(/C=C2/SC(=O)NC2=O)cc(OC)c1O

IC50 [1]: 12 µM
Structure (SMILES): O=C1NC(=O)/C(=C\c2ccc(O)cc2)S1

IC50 [1]: 2.49 µM
Structure (SMILES): COc1cc(/C=C2/SC(=O)NC2=O)ccc1O
Activity [2]: 184.09 nmol/mg
Activity [3]: 16.85 U/mg
Activity [4]: 0.143 nmol/mg
Activity [5]: 38.1 IU/L
Urea level [6]: 13.83 mg/dL
Activity [7]: 4.8 IU/L
Activity [8]: 65.45 U/mg
Activity [9]: 220.8 nmol/mg/min
